Experimental data published in US10349656B2, “Difluoromethyl-nicotinic-indanyl carboxamides” (BAYER CROPSCIENCE AKTIENGESELLSCHAFT, priority 2014, dated 2019).

Columns and labels:
Pyrenophora teres = experiment: In vivo preventive test on Pyrenophora teres (net blotch on barley); details: barley plants; for Efficacy: comparison table
Protocol: (§1) The active ingredients are made soluble and homogenized in a mixture of Dimethyl sulfoxide/Acetone//Tween® 80 and then diluted in water to the desired concentration.
The young plants of barley are treated by spraying the active ingredient prepared as described above. Control plants are treated only with an aqueous solution of Acetone/Dimethyl sulfoxide/Tween® 80.
After 24 hours, the plants are contaminated by spraying the leaves with an aqueous suspension of Pyreoophora teres spores. The contaminated barley plants are incubated for 48 hours at 20° C. and at 100% relative humidity and then for 12 days at 20° C. and at 70-80% relative humidity.
The test is evaluated 14 days after the inoculation. 0% means an efficacy which corresponds to that of the control plants while an efficacy of 100% means that no disease is observed.

Septoria tritici = experiment: In vivo preventive test on Septoria tritici (leaf spot on wheat), DMSO/acetone/Tween 80; details: wheat plants; for Efficacy: dose 10 ppm, comparison table; for protection (in words): dose of 10 ppm of active ingredient
Protocol: as §1
The young plants of wheat are treated by spraying the active ingredient prepared as described above. Control plants are treated only with an aqueous solution of Acetone/Dimethyl sulfoxide/Tween® 80.
After 24 hours, the plants are contaminated by spraying the leaves with an aqueous suspension of Septoria tritici spores. The contaminated wheat plants are incubated for 72 hours at 18° C. and at 100% relative humidity and then for 21 days at 20° C. and at 90% relative humidity.
The test is evaluated 24 days after the inoculation. 0% means an efficacy which corresponds to that of the control plants while an efficacy of 100% means that no disease is observed.

Sphaerotheca fuliginea = experiment: In vivo preventive test on Sphaerotheca fuliginea (powdery mildew on cucurbits); details: gherkin plants; for Efficacy: dose 10 ppm, comparison table; for protection (in words): dose of 10 ppm of active ingredient
Protocol: as §1
(§2) The young plants of gherkin are treated by spraying the active ingredient prepared as described above. Control plants are treated only with an aqueous solution of Acetone/Dimethyl sulfoxide/Tween® 80.
After 24 hours, the plants are contaminated by spraying the leaves with an aqueous suspension of Sphaerotheca fuliginea spores. The contaminated gherkin plants are incubated for 72 hours at 18° C. and at 100% relative humidity and then for 12 days at 20° C. and at 70-80% relative humidity.
The test is evaluated 15 days after the inoculation. 0% means an efficacy which corresponds to that of the control plants while an efficacy of 100% means that no disease is observed.

[1] = Log P by HPLC on reversed phase columns (EEC directive 79/831 Annex V.A8), acidic range; type: physicochemical; details: for chromatographic logP: LC-UV, acidic range, 0.1% formic acid in water and acetonitrile (gradient 10% to 95% acetonitrile)
Protocol: Measurement of Log P values was performed according to EEC directive 79/831 Annex V.A8 by HPLC (High Performance Liquid Chromatography) on reversed phase columns with the following method: ^[a] Log P value is determined by measurement of LC-UV, in an acidic range, with 0.1% formic acid in water and acetonitrile as eluent (linear gradient from 10% acetonitrile to 95% acetonitrile).
(§3) Calibration was done with straight-chain alkan2-ones (with 3 to 16 carbon atoms) with known Log P values (measurement of Log P values using retention times with linear interpolation between successive alka-nones). Lambda-max-values were determined using UV-spectra from 200 nm to 400 nm and the peak values of the chromatographic signals.
as §3, with “alkanones).” for “alka-nones).”

Botrytis cinerea = experiment: In vivo preventive test on Botrytis cinerea (grey mould); details: gherkin plants
Protocol: as §1, §2
After 24 hours, the plants are contaminated by spraying the leaves with an aqueous suspension of Botrytis cinerea spores. The contaminated gherkin plants are incubated for 4 to 5 days at 17° C. and at 90% relative humidity.
The test is evaluated 4 to 5 days after the inoculation. 0% means an efficacy which corresponds to that of the control plants while an efficacy of 100% means that no disease is observed.

[2] = dose of 10 ppm of active ingredient
[3] = dose of 100 ppm of active ingredient

For CCC1CC(C)(C)c2cccc(NC(=O)c3cccnc3Cl)c21 (stereo not drawn) [2-chloro-N-(3-ethyl-1,1-dimethyl-2,3-dihydro-1H-inden-4-yl)nicotinamide, reference compound], the Efficacy (Pyrenophora teres; dose 10 ppm) was 0%, the Efficacy (Pyrenophora teres; dose 100 ppm) was 71% and the “protection (in words)” value (Pyrenophora teres; [2]) was “no protection at all”. For the same molecule, the “protection (in words)” value (Pyrenophora teres; [3]) was “moderate protection”, the Efficacy (Septoria tritici) was 50% and the “protection (in words)” value (Septoria tritici) was “moderate protection”. For the same molecule, the Efficacy (Sphaerotheca fuliginea) was 44% and the “protection (in words)” value (Sphaerotheca fuliginea) was “weak protection”.
For CCC1CC(C)(C)c2cccc(NC(=O)c3cccnc3C(F)F)c21 (single isomer, unassigned) [Example 4], the “Log P[a]” value [1] was 3.62^[a].
For CCCC1CC(C)(C)c2cccc(NC(=O)c3c(F)ccnc3C(F)F)c21 (racemic) [Example 15], the “Log P[a]” value [1] was 4.21^[a].
For CC(C)CC1CC(C)(C)c2cccc(N)c21 (racemic) [Example III-04], the “Log P[a]” value [1] was 4.18^[a].
For CCCC1CC(C)(C)c2cccc(NC(=O)c3cccnc3C(F)F)c21 (single isomer, unassigned) [Example 6], the “Log P[a]” value [1] was 3.96^[a].
In the case of CCCC1CC(C)(C)c2cccc(N)c21 (racemic) [Example III-03], the “Log P[a]” value [1] is reported as 3.60^[a].
With CC(C)CC1CC(C)(C)c2cccc(NC(=O)c3cccnc3C(F)F)c21 (single isomer, unassigned) [Example 11] the “Log P[a]” value [1] was 4.27^[a].
In the case of CCC1CC(C)(C)c2cccc(NC(=O)c3cccnc3C(F)F)c21 (single isomer, unassigned) [Example 3], the “Log P[a]” value [1] is reported as 3.62^[a].
With CC(C)C1CC(C)(C)c2cccc(N)c21 (racemic) [Example III-01] the “Log P[a]” value [1] was 3.37^[a].
For CCCC1CC(C)(C)c2cccc(NC(=O)c3cccnc3C(F)F)c21 (racemic) [Example 5], the “Log P[a]” value [1] was 3.96^[a].
With CCCC1CC(C)(C)c2cccc(NC(=O)c3ccc(Cl)nc3C(F)F)c21 (racemic) [Example 8] the “Log P[a]” value [1] was 4.65^[a].
For CC(C)CC1CC(C)(C)c2cccc(NC(=O)c3cccnc3C(F)F)c21 (racemic) [Example 10], the “Log P[a]” value [1] was 4.27^[a].
For CC(C)C1CC(C)(C)c2cccc(NC(=O)c3cccnc3C(F)F)c21 (racemic) [Example 1], the “Log P[a]” value [1] was 3.87^[a].
With CCC1CC(C)(C)c2cccc(N)c21 (stereo not drawn) [Example III-02, 3-ethyl-1,1-dimethylindan-4-amine] the chromatographic logP [1] was 2.86.
For CCCC1CC(C)(C)c2cccc(NC(=O)c3cccnc3C(F)F)c21 (single isomer, unassigned) [Example 7], the “Log P[a]” value [1] was 3.96^[a].
With CCC1CC(C)(C)c2cccc(NC(=O)c3cccnc3C(F)F)c21 (stereo not drawn) [Example 2, 2-(difluoromethyl)-N-(3-ethyl-1,1-dimethyl-2,3-dihydro-1H-inden-4-yl)nicotinamide] the Efficacy (Pyrenophora teres; dose 10 ppm) was 64%, the Efficacy (Pyrenophora teres; dose 100 ppm) was 93% and the “protection (in words)” value (Pyrenophora teres; [2]) was “moderate protection”. The “protection (in words)” value (Pyrenophora teres; [3]) was “very good protection”, the Efficacy (Botrytis cinerea; dose 100 ppm, comparison table) was 93% and the “protection (in words)” value (Botrytis cinerea; [3]) was “very good protection”. For the same molecule, the Efficacy (Septoria tritici) was 97%, the “protection (in words)” value (Septoria tritici) was “very good protection” and the Efficacy (Sphaerotheca fuliginea) was 100%. For the same molecule, the “protection (in words)” value (Sphaerotheca fuliginea) was “total protection” and the chromatographic logP [1] was 3.62.
With CCC1CC(C)(C)c2cccc(NC(=O)c3c(F)ccnc3C(F)F)c21 (racemic) [Example 14] the “Log P[a]” value [1] was 3.87^[a].
With CC(C)CC1CC(C)(C)c2cccc(NC(=O)c3cccnc3C(F)F)c21 (single isomer, unassigned) [Example 12] the “Log P[a]” value [1] was 4.27^[a].
For CC(C)CC1CC(C)(C)c2cccc(NC(=O)c3c(F)ccnc3C(F)F)c21 (racemic) [Example 13], the “Log P[a]” value [1] was 4.54^[a].
